Measured values: patent US20080220416A1, “Compositions for Inhibiting Cell Growth and Inducing Apoptosis in Cancer Cells and Methods of Use Thereof” (THE BOARD OF TRUSTEES OF THE UNIVERSITY OF ILLINOI, priority 2004, published 2008)
Square brackets hold non-standard residues; d marks the D form. Peptide text beside a SMILES is read from it. * marks the point of attachment. Nle = CCCC[C@H](N)C(=O)O; Cbz = O=C(OCc1ccccc1)*

Columns and labels:
[1] = system: Human Mammary Epithelial Cells (HMEC); experiment: Proliferation of normal breast cells (HMEC) after siRNA; type: cell-based; settings: siRNA transfection
Protocol: An invasive, estrogen-independent breast cancer cell line that spontaneously expresses high levels of Notch-1 and -4, MDA-MB231, and normal human breast cells were used to investigate whether inhibition of Notch activation or expression affects the biological behavior of breast cancer cells. […] Sequence specificity was determined by BLAST searches which determined the uniqueness of the sequences. […] Transfected cells were identified by Streptavidin-horseradish peroxidase staining (Vectastain) and counted. […]
Cytotoxicity and growth of transfected cells were estimated by a standard assay used for cancer drug screening, through the total amount of TCA-precipitated cell proteins after drug treatment (Likhitwitayawuid, K et al., 1993, J Nat Prod 56:30-38): 200 μl of cell suspension (10^5 cells/ml) were added to each well in a 96-well plate. […] Plates were shaken for 5-10 minutes and OD at 490 nm (OD490) was recorded via ELISA reader. […] After removal of the non-invading cells from the interior of the inserts, stained invading cells were lysed in 10% acetic acid and OD595 was determined.

melanoma cell lines = experiment: Apoptosis of melanoma cell lines treated with z-Leu-Leu-Nle-CHO (Annexin V FITC / propidium iodide flow cytometry); type: cell-based, human; settings: each of nine melanoma cell lines; 10 μM for 24 h
Protocol: The effect of z-Leu-Leu-Nle-CHO on apoptosis was tested in vitro using normal human melanocytes and several melanoma cell cultures. Prior to testing, cutaneous (C8161, SK-MeI-28, SK-MeI-100, SK-MeI-5, C81-61), uveal or ocular (MUM2B, MUM2C, OCM-1A), and pulmonary metastases (RJ002L) melanoma cell lines were maintained in RPMI supplemented with 10% FBS. Normal human melanocytes were isolated from neonatal foreskins as previously described (Qin J et al., 2004, Mol Cancer Ther 3:895-902) and cultured with medium 154 containing growth supplements (Cascade Biologics, Portland, Oreg.).
To assess the effect of z-Leu-Leu-Nle-CHO on the cell lines, the cells were grown in suitable culture media. Highly proliferating cells (i.e., cells that had reached approximately 30% confluency) were exposed to z-Leu-Leu-Nle-CHO as described below. […]
Following treatment with z-Leu-Leu-Nle-CHO, the melanoma and melanocyte cell cultures were assayed for apoptotic cells using the APO TARGET Annexin V FITC staining kit (Biosource, Camarillo, Calif.) according to the manufacturer's instructions followed by flow cytometric analysis using FACScaliber (Becton Dickinson, Palo Alto, Calif.) as described in Qin, J. et al., 2001, Nat Med 7:385-386. In some cases, cell cycle and apoptosis analysis was measured using propidium iodide staining and flow cytometry as described. […]

SK-MeI-28 melanoma cells = experiment: Dosing study versus chemotherapeutic agents, killing of SK-MeI-28 melanoma cells; type: cell-based, human; settings: SK-MeI-28, mutated p53
Protocol: An initial dosing study comparing z-Leu-Leu-Nle-CHO against three different chemotherapeutic agents (i.e., adriamycin, etoposide, and cisplatin) was performed to evaluate the relative effectiveness of z-Leu-Leu-Nle-CHO in killing melanoma cells. In agreement with a previous report by Soengas, M. S. et al., 2001, Nature 409.207-211, SK-MeI-28 cells, carrying a mutated p53, were relatively resistant to killing by adriamycin, as well as to killing by other chemotherapeutic agents. For SK-MeI-28 melanoma cells, the maximal apoptotic response for adriamycin, etoposide, cisplatin, and z-Leu-Leu-Nle-CHO was 12.0%, 2.6%, 4.0%, and 29.4%, respectively. For RJ002L melanoma cells, the maximal apoptotic response for adriamycin, etoposide, cisplatin, and z-Leu-Leu-Nle-CHO was 23.9%, 12.7%, 3.4%, and 45.7%, respectively.

[2] = system: T47D:A18 breast cancer cells; experiment: Cytotoxicity assay in T47D:A18 breast cancer cells; type: cell-based; settings: T47D:A18 (p53 wild-type, ERα-positive); 48 h; read-out: IC50, cell growth inhibition
Protocol: Cytotoxicity and growth of transfected cells were estimated by a standard assay used for cancer drug screening, through the total amount of TCA-precipitated cell proteins after drug treatment (Likhitwitayawuid, K et al., 1993, J Nat Prod 56:30-38): 200 μl of cell suspension (10^5 cells/ml) were added to each well in a 96-well plate. After incubation at, 37° C., in 5% CO2 (30 minutes to 72 hours depending on the time course chosen), 50 μl 50% trichloroacetic acid was added to each well. After incubation at 4° C. for 1 hour, precipitates were washed with water 4-5 times and air dried overnight. One hundred μl of SRB solution (0.4% sulforhodamine B in 1% acetic acid, filtered before use) was added to each well for 30 minutes. Wells were washed with 1% acetic acid 4-5 times and air dried. Two hundred μl 10 mM Tris base was added to each well. Plates were shaken for 5-10 minutes and OD at 490 nm (OD490) was recorded via ELISA reader. To assay matrix invasion, 300 μl of cell suspension (10^6 cells/mL in serum-free medium) were added to invasion inserts (BioCoat Matrigel Invasion Chambers, Becton Dickinson, Bedford, Mass.) and incubated for 22 hours at 37° C., 5% CO2. Cells were stained with 0.9% crystal violet in 10% ethanol for 20 minutes. […] After removal of the non-invading cells from the interior of the inserts, stained invading cells were lysed in 10% acetic acid and OD595 was determined. […]

| Molecule | proliferation [1] | induction of apoptosis (melanoma cell lines) | maximal apoptotic response (SK-MeI-28 melanoma cells) | IC50 [2] |
| --- | --- | --- | --- | --- |
| 5′-AAGTGTCTGAGGCCAGCAAGA-3′ [Notch-1 siRNA] | inhibits proliferation of normal breast cells | – | – | – |
| CCCC[C@@H](C=O)NC(=O)[C@H](CC(C)C)NC(=O)[C@H](CC(C)C)NC(=O)OCc1ccccc1 [z-Leu-Leu-Nle-CHO, N-benzyloxycarbonyl-leucyl-leucyl-norleucinal] (Cbz-Leu-Leu-[Nle]-aldehyde) | – | triggered a dose-dependent increase in apoptosis | 29.4% | 570 nM |
